Assay results published in the supplement of paper PMC5908809.

Columns and labels:
[1] = test system: normal NK cells expanded with K562-aAPC; test: drug sensitivity score (DSS) (DSS units); higher = more sensitive; extreme values may be limits of the assay; conditions: 72 h; IL-2 2.5 ng/mL
Description: (§1)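 Drug sensitivity and resistance testing on K562-aAPC-expanded normal NK cells: 5 concentrations (10-fold steps over a 10,000-fold range), 72 h at 37 °C, viability by CellTiter-Glo normalised to DMSO and benzethonium chloride controls; DSS from the fitted curve.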

[2] = test system: normal NK cells expanded with K562-aAPC; test: percent inhibition of viability; higher = more inhibition; conditions: 72 h, IL-2 2.5 ng/mL
Description: as §1

NK-92 (IL-2 2.5 ng/mL) [3] = test: as above; conditions: 72 h
[4] = test system: normal primary NK cells, pool 1 (3 donors), resting (IL-2 0 ng/mL); test: as above; conditions: 72 h
IMC-1 (IL-2 20 ng/mL) [5] = test: as above; conditions: 72 h
KAI3 (IL-2 2.5 ng/mL) [6] = test: as above; conditions: 72 h
NK-YS (IL-2 2.5 ng/mL) [7] = test: as above; conditions: 72 h
YT (IL-2 2.5 ng/mL) [8] = test: as above; conditions: 72 h
[9] = test system: normal primary NK cells, pool 2 (3 donors) (IL-2 2.5 ng/mL); test: as above; conditions: 72 h
DERL-7 (IL-2 2.5 ng/mL) [10] = test: as above; conditions: 72 h
SNK-6 (IL-2 2.5 ng/mL) [11] = test: as above; conditions: 72 h
[12] = test system: normal primary NK cells, pool 1 (3 donors) (IL-2 2.5 ng/mL); test: as above; conditions: 72 h
[13] = test system: normal primary NK cells, pool 3 (3 donors) (IL-2 2.5 ng/mL); test: as above; conditions: 72 h
KHYG-1 (IL-2 2.5 ng/mL) [14] = test: as above; conditions: 72 h
NKL (IL-2 2.5 ng/mL) [15] = test: as above; conditions: 72 h
NK-92 (IL-2 2.5 ng/mL) [16] = test: drug sensitivity score (DSS) (DSS units); higher = more sensitive; extreme values may be limits of the assay; conditions: 72 h
[17] = test system: normal primary NK cells, pool 1 (3 donors), resting (IL-2 0 ng/mL); test: as above; conditions: 72 h
IMC-1 (IL-2 20 ng/mL) [18] = test: as above; conditions: 72 h
KAI3 (IL-2 2.5 ng/mL) [19] = test: as above; conditions: 72 h
NK-YS (IL-2 2.5 ng/mL) [20] = test: as above; conditions: 72 h
YT (IL-2 2.5 ng/mL) [21] = test: as above; conditions: 72 h
[22] = test system: normal primary NK cells, pool 2 (3 donors) (IL-2 2.5 ng/mL); test: as above; conditions: 72 h
DERL-7 (IL-2 2.5 ng/mL) [23] = test: as above; conditions: 72 h
SNK-6 (IL-2 2.5 ng/mL) [24] = test: as above; conditions: 72 h
[25] = test system: normal primary NK cells, pool 1 (3 donors) (IL-2 2.5 ng/mL); test: as above; conditions: 72 h
[26] = test system: normal primary NK cells, pool 3 (3 donors) (IL-2 2.5 ng/mL); test: as above; conditions: 72 h
KHYG-1 (IL-2 2.5 ng/mL) [27] = test: as above; conditions: 72 h
NKL (IL-2 2.5 ng/mL) [28] = test: as above; conditions: 72 h

CCNC(=O)CCC/C=C\C[C@@H]1[C@@H](/C=C/[C@@H](O)CCc2ccccc2)[C@H](O)C[C@@H]1O [Bimatoprost] (max concentration tested 5500 nM)
Conditions | drug sensitivity score
DERL-7 (IL-2 2.5 ng/mL) [23] | 0.89
IMC-1 (IL-2 20 ng/mL) [18] | 0.89
KAI3 (IL-2 2.5 ng/mL) [19] | 0.89
KHYG-1 (IL-2 2.5 ng/mL) [27] | 0.89
NK-92 (IL-2 2.5 ng/mL) [16] | 0.89
NK-YS (IL-2 2.5 ng/mL) [20] | 0.89
NKL (IL-2 2.5 ng/mL) [28] | 0
SNK-6 (IL-2 2.5 ng/mL) [24] | 0
YT (IL-2 2.5 ng/mL) [21] | 0.89
[1] | 0.89
[17] | 0
[22] | 0.89
[25] | 0
[26] | 0.89

percent inhibition of viability [%]
Conditions | 0.55 nM | 5.5 nM | 55 nM | 550 nM | 5500 nM
DERL-7 (IL-2 2.5 ng/mL) [10] | -5.3 | -2.53 | -3.35 | -10.4 | -4.94
IMC-1 (IL-2 20 ng/mL) [5] | -1.84 | -3.91 | -0.72 | -4.98 | -0.62
KAI3 (IL-2 2.5 ng/mL) [6] | -9.15 | -10.1 | -8.67 | -6.35 | -7.76
KHYG-1 (IL-2 2.5 ng/mL) [14] | -6.16 | -6.81 | -5.76 | -5.66 | -2.75
NK-92 (IL-2 2.5 ng/mL) [3] | -8.7 | -4.9 | -11.6 | -5.65 | -8.03
NK-YS (IL-2 2.5 ng/mL) [7] | -3.18 | -8.08 | -6.49 | -9.97 | -6.34
NKL (IL-2 2.5 ng/mL) [15] | -10.6 | -7.92 | -13.9 | -14.1 | 7.05
SNK-6 (IL-2 2.5 ng/mL) [11] | 17.6 | 0.29 | 2.65 | -15.2 | -3.36
YT (IL-2 2.5 ng/mL) [8] | -1.68 | -3.7 | -5.41 | -3.35 | -5.44
[2] | -0.32 | -7.8 | -7.43 | -6.39 | -7.75
[4] | 5.81 | -2 | -9.81 | 4.1 | 6.67
[9] | -11.3 | -11.2 | -11.5 | -10.1 | -6.11
[12] | -4.1 | -2.93 | -7.66 | 5.27 | 3.45
[13] | -15.9 | -13.5 | -18 | -10.8 | -6.94

CC(C)CC(=O)Nc1n[nH]c2c1CN(C(=O)C1CCN(C)CC1)C2(C)C (max concentration tested 10000 nM)
Conditions | drug sensitivity score
DERL-7 (IL-2 2.5 ng/mL) [23] | 13.1
IMC-1 (IL-2 20 ng/mL) [18] | 21
KAI3 (IL-2 2.5 ng/mL) [19] | 9.47
KHYG-1 (IL-2 2.5 ng/mL) [27] | 16.4
NK-92 (IL-2 2.5 ng/mL) [16] | 5.51
NK-YS (IL-2 2.5 ng/mL) [20] | 14.8
NKL (IL-2 2.5 ng/mL) [28] | 9.5
SNK-6 (IL-2 2.5 ng/mL) [24] | 6.8
YT (IL-2 2.5 ng/mL) [21] | 10.6
[1] | 7.91
[17] | 3.02
[22] | 7.11
[25] | 5.49
[26] | 3.98

percent inhibition of viability [%]
Conditions | 1 nM | 10 nM | 100 nM | 1000 nM | 10000 nM
DERL-7 (IL-2 2.5 ng/mL) [10] | -3.18 | -3.13 | 19.6 | 55.2 | 100
IMC-1 (IL-2 20 ng/mL) [5] | 3.15 | 9.36 | 18 | 101 | 101
KAI3 (IL-2 2.5 ng/mL) [6] | 0.22 | 5.67 | 10.2 | 34.4 | 97.8
KHYG-1 (IL-2 2.5 ng/mL) [14] | 3.79 | 5.48 | 13.2 | 79.1 | 104
NK-92 (IL-2 2.5 ng/mL) [3] | -3.46 | 8.8 | 18 | 15.4 | 52.1
NK-YS (IL-2 2.5 ng/mL) [7] | -0.22 | 5.26 | 25.9 | 59.1 | 103
NKL (IL-2 2.5 ng/mL) [15] | 9.47 | 12.1 | 8.64 | 26 | 105
SNK-6 (IL-2 2.5 ng/mL) [11] | 1.24 | 13.9 | 17.6 | 21.7 | 77.7
YT (IL-2 2.5 ng/mL) [8] | 4.62 | 5.8 | 7.48 | 37.5 | 104
[2] | 1.26 | -0.23 | 9.16 | 24.6 | 84.3
[4] | -13.4 | -45.2 | -20.7 | -66.9 | 85
[9] | -7.33 | 3.3 | 10.1 | 14.3 | 85.4
[12] | 5.81 | -11.3 | 1.49 | 2.13 | 93.6
[13] | -6.64 | -10.6 | 9.27 | 6.31 | 54.5
